Source: US7074789B2, “Kinase inhibitors” (Amgen Inc., priority 1999, dated 2006)

How the values were obtained:
Assay type in all cases: biochemical
AKT = target: T1, AKT (Homo sapiens, UniProt Q9Y243); assay: Kinase inhibition assay (33P transfer), AKT; conditions: Table 2, class symbols A-E; read-out: AKT3-1
T1 construct: Kinases are expressed as either kinase domains or full length constructs; made in house
Summary of the method: (§1)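 GST/His-tagged kinase (domain or full length; E. coli or baculovirus) + [33P]ATP on plates coated with poly(Glu,Tyr) 4:1 or poly(Arg,Ser) 3:1; incubate, wash 0.5% H3PO4, add scintillant, count.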

PDGFRB = target: T2, PDGFRB (Homo sapiens, UniProt P09619); assay: Kinase inhibition assay (33P transfer), PDGFRB; conditions: read-out: PDGFRB-1
T2 construct: Kinases are expressed as either kinase domains or full length constructs; made in house

ErbB2 = target: T3, ErbB2 (Homo sapiens, UniProt P04626); assay: Kinase inhibition assay (33P transfer), ErbB2; conditions: read-out: ErbB2-2
T3 construct: Kinases are expressed as either kinase domains or full length constructs; made in house
Summary of the method: (§2)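 Activity read as 33P incorporation from ATP into poly(Glu,Tyr) 4:1 or poly(Arg,Ser) 3:1 substrate bound to microtiter plates, measured by scintillation after acid washing. Enzymes were affinity-purified GST or polyHis fusions (kinase domain or full length) from E. coli or baculovirus; IC50 = 50% reduction in labelled phosphate.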

Itk = target: T4, Itk (Homo sapiens, UniProt Q08881); assay: Kinase inhibition assay (33P transfer), Itk; conditions: Table 3, class symbols; read-out: Itk-1
T4 construct: Kinases are expressed as either kinase domains or full length constructs; made in house
T4 sequence (Q08881 1-620): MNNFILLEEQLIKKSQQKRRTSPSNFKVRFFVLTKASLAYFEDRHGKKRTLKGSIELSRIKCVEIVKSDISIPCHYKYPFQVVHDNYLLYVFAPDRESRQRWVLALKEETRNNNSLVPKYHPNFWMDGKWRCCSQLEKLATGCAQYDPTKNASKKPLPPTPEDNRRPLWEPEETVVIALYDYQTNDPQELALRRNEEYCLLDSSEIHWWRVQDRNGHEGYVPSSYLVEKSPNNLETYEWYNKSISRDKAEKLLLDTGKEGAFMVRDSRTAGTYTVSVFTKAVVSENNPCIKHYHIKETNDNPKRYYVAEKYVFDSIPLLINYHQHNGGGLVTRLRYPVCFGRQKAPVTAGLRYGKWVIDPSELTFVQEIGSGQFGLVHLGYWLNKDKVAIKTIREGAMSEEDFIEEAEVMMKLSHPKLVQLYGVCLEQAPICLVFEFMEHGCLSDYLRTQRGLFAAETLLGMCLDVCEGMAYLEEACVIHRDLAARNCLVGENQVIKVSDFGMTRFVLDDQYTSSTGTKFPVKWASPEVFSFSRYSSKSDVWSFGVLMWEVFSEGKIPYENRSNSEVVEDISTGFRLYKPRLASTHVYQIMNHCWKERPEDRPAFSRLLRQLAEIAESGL
Summary of the method: as §2

Kdr = target: T5, Kdr (Homo sapiens, UniProt P35968); assay: Kinase inhibition assay (33P transfer), Kdr; conditions: Table 3, class symbols; read-out: KDR-1
T5 construct: Kinases are expressed as either kinase domains or full length constructs; made in house
Summary of the method: as §1

c-Met = target: T6, c-Met (Homo sapiens, UniProt P08581); assay: Kinase inhibition assay (33P transfer), c-Met; conditions: Table 2, class symbols A-E; read-out: Met-1
T6 construct: Kinases are expressed as either kinase domains or full length constructs; made in house
Summary of the method: as §2

EGFR = target: T7, EGFR (Homo sapiens, UniProt P00533); assay: Kinase inhibition assay (33P transfer), EGFR; conditions: Table 2, class symbols A-E; read-out: EGFR-1
T7 construct: Kinases are expressed as either kinase domains or full length constructs; made in house
Summary of the method: as §2

Lck = target: T8, Lck (Homo sapiens, UniProt P06239); assay: Kinase inhibition assay (33P transfer), Lck; conditions: Table 3, class symbols; read-out: Lck-1
T8 construct: Kinases are expressed as either kinase domains or full length constructs; made in house
Summary of the method: as §1

Zap-70 = target: T9, Zap-70 (Homo sapiens, UniProt P43403); assay: Kinase inhibition assay (33P transfer), Zap-70; conditions: Table 3, class symbols; read-out: Zap-1
T9 construct: Kinases are expressed as either kinase domains or full length constructs; made in house
T9 sequence (P43403 1-619): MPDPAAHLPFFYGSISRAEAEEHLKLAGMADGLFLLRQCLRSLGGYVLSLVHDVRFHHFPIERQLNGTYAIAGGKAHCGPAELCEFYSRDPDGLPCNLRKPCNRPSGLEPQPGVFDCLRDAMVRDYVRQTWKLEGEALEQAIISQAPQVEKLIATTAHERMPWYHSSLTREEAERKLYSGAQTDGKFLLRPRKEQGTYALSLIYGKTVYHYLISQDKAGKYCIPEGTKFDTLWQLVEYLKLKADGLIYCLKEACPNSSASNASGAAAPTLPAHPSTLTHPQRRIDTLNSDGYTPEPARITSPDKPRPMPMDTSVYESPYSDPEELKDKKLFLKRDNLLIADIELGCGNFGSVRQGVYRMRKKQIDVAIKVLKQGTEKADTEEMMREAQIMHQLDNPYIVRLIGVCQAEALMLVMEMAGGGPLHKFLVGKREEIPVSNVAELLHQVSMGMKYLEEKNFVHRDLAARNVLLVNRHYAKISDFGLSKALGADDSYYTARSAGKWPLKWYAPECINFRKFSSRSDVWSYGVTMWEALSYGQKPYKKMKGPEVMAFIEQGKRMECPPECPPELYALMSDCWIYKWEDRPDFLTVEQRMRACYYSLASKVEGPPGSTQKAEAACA
Summary of the method: as §1

IGFR-1 = target: T10, IGFR-1 (Homo sapiens, UniProt P08069); assay: Kinase inhibition assay (33P transfer), IGFR-1; conditions: Table 2, class symbols A-E
T10 construct: Kinases are expressed as either kinase domains or full length constructs; made in house

Measured: IC50

T1 sequence (Q9Y243 whole entry, the tested form may be a part): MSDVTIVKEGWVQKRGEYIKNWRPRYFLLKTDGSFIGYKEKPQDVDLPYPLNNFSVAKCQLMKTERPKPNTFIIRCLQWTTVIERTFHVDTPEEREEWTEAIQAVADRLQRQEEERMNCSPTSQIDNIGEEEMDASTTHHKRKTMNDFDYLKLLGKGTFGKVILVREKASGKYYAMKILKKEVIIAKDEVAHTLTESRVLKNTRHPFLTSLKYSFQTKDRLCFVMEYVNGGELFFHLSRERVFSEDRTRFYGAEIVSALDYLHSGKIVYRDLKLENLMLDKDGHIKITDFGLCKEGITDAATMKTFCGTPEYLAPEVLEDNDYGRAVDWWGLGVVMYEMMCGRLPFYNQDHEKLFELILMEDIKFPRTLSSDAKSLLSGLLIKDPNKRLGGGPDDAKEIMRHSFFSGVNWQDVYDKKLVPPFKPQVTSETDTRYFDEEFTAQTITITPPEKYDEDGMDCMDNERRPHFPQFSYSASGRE
T2 sequence (P09619 33-1106, species assumed): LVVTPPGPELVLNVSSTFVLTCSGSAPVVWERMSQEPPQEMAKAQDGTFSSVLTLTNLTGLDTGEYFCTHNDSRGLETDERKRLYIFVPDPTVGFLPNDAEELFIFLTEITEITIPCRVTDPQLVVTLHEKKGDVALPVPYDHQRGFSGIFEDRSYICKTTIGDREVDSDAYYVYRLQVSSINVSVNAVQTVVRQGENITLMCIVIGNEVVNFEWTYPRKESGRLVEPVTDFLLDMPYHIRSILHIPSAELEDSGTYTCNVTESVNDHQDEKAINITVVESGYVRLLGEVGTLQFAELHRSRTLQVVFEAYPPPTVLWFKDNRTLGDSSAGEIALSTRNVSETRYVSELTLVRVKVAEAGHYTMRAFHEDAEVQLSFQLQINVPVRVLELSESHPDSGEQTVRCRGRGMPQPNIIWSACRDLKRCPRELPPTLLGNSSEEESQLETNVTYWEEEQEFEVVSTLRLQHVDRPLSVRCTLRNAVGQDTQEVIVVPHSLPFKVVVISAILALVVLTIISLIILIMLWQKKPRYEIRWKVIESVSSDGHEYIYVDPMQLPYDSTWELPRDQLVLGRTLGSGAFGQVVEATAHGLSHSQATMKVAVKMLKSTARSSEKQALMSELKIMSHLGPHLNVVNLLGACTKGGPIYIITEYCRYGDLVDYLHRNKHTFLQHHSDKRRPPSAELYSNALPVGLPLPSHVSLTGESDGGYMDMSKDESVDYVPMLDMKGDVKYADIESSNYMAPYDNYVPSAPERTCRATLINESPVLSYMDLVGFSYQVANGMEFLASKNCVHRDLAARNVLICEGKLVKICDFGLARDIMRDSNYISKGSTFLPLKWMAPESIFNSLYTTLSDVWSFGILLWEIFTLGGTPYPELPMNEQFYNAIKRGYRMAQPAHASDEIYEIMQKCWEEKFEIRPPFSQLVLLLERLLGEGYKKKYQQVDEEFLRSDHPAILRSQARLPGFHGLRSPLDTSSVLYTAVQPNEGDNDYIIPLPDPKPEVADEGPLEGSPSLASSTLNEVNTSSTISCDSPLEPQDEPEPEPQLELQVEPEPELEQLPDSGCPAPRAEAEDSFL
T5 sequence (P35968 20-1356, species assumed): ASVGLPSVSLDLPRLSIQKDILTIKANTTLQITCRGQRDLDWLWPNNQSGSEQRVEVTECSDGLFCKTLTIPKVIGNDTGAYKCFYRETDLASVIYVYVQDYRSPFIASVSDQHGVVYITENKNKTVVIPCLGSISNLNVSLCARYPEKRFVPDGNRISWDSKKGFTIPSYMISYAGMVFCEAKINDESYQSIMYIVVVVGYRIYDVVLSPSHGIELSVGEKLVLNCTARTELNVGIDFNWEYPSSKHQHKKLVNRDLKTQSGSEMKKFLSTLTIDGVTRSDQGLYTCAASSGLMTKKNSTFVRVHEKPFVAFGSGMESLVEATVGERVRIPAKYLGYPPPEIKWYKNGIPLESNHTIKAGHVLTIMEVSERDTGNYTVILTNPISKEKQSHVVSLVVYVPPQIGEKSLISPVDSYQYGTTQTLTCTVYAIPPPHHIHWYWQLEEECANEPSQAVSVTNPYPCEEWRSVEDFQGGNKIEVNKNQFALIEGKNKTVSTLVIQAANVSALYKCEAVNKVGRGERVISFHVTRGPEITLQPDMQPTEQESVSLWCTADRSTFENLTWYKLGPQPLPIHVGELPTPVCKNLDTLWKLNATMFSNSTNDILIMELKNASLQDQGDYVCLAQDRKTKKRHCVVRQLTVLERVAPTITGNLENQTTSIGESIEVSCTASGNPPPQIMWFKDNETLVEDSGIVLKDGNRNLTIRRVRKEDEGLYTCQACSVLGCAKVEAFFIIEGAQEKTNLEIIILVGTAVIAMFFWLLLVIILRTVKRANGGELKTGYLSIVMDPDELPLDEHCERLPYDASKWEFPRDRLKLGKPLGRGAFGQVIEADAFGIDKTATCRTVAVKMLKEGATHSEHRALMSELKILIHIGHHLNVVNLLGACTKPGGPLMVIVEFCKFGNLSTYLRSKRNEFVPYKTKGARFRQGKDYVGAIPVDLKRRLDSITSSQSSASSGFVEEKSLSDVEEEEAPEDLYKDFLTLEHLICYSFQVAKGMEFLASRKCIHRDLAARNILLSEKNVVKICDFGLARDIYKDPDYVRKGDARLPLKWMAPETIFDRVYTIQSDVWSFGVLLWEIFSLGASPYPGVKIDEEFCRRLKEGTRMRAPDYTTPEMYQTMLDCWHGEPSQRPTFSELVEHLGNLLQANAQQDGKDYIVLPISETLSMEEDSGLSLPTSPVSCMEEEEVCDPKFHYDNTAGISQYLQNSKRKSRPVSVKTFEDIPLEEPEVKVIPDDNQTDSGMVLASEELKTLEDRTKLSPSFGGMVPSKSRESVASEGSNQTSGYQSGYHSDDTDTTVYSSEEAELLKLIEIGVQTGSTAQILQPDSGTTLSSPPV
T6 sequence (P08581 25-1390): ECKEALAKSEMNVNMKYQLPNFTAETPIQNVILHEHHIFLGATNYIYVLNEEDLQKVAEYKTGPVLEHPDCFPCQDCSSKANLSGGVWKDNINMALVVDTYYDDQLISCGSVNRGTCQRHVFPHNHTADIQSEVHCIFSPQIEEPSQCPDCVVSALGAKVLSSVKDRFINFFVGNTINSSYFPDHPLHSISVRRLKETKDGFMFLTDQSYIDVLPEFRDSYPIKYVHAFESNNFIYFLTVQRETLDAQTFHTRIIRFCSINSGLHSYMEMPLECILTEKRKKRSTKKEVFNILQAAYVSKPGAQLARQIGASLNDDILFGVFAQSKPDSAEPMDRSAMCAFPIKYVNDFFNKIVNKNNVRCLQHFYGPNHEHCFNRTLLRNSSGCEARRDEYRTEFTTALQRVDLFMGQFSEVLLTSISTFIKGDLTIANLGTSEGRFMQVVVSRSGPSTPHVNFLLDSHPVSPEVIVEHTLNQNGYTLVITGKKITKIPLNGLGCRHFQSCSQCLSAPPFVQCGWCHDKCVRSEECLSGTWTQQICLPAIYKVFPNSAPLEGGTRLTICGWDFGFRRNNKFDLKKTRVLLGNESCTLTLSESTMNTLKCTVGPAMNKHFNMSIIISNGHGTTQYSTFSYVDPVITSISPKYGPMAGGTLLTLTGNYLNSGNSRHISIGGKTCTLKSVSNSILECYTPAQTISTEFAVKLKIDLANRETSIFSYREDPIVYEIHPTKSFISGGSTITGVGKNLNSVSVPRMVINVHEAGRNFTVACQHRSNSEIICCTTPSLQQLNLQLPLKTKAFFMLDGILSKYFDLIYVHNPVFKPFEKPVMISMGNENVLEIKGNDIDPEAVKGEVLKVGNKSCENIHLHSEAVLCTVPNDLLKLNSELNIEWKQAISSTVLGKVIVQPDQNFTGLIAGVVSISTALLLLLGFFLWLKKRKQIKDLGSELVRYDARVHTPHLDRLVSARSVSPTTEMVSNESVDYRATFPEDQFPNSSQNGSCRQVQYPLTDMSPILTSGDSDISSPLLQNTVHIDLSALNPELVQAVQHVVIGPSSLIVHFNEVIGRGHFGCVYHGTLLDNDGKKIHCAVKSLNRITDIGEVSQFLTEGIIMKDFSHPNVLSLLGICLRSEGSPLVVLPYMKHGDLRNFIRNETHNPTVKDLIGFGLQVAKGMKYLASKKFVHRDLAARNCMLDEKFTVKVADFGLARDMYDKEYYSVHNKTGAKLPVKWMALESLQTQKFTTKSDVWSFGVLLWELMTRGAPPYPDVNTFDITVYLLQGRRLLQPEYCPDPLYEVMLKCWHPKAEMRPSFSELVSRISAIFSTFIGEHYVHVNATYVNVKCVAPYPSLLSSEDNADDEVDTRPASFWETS
T8 sequence (P06239 whole entry, species assumed, the tested form may be a part): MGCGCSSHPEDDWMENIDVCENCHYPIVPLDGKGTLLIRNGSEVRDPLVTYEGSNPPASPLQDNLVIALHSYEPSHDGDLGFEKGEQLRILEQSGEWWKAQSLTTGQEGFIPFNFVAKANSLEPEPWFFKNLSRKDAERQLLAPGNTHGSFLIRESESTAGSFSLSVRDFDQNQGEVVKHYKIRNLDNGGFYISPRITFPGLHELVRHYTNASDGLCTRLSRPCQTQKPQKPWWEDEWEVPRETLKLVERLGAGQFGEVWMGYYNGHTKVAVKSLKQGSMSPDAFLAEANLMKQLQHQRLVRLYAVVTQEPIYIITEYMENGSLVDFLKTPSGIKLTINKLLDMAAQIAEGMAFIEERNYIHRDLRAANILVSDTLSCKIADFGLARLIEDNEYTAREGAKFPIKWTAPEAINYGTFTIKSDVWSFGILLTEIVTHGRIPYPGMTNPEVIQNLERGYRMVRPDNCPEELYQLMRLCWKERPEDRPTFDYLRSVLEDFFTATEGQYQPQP

COC(=O)c1ccc(-c2cc(Nc3ncnc(Nc4cccc(S(=O)(=O)O)c4)n3)[nH]n2)cc1 [Compound 882]
5.13 to 7.49 µM: AKT | Lck
> 9.63 µM: Zap-70
0.856 to 5.13 µM: all other assays above

O=C(O)Cc1cccc(Nc2ncnc(-c3cccnc3NCc3ccc(F)cc3)n2)c1 [Compound 1100]
< 0.929 µM: PDGFRB | Kdr
8.13 to 10.5 µM: c-Met | Lck
0.929 to 5.58 µM: ErbB2 | EGFR
> 10.5 µM: all other assays above

COC(=O)c1ccc(-c2cc(Nc3ncnc(NC4=NC(=O)CS4)n3)[nH]n2)cc1 [Compound 881]
> 11 µM: AKT | Lck | Zap-70
0.975 to 5.85 µM: all other assays above

COC(=O)c1ccc(-c2cc(Nc3ncnc(Nc4cccc(Cc5nnn[nH]5)c4)n3)[nH]n2)cc1 [Compound 991]
0.852 to 5.11 µM: PDGFRB | ErbB2 | EGFR | IGFR-1
< 0.852 µM: c-Met
7.46 to 9.59 µM: Zap-70
5.11 to 7.46 µM: all other assays above

Fc1ccc(CNc2ncnc(Nc3cc(-c4ccco4)n[nH]3)n2)cc1 [Compound 996]
9.96 to 12.8 µM: EGFR
1.14 to 6.83 µM: IGFR-1
> 12.8 µM: all other assays above

COCCNc1ncnc(Nc2cc(-c3ccc(C(=O)OC)cc3)n[nH]2)n1 [Compound 816]
< 1.08 µM: PDGFRB
9.48 to 12.2 µM: IGFR-1
6.5 to 9.48 µM: ErbB2 | Itk
> 12.2 µM: all other assays above

c1coc(-c2cc(Nc3ncnc(Nc4ccc(-c5csnn5)cc4)n3)n[nH]2)c1 [Compound 891]
5.95 to 8.68 µM: Lck
0.991 to 5.95 µM: AKT | Itk | EGFR | Zap-70
< 0.991 µM: all other assays above

CN(c1cccc(Cl)c1)c1ncnc(Nc2ccc3c(cnn3C)c2)n1 [Compound 674]
> 12.3 µM: AKT | Itk | Zap-70 | IGFR-1
< 1.09 µM: EGFR
1.09 to 6.56 µM: all other assays above

Cc1ccc(Cl)cc1Nc1ncnc(N2c3ccc(F)cc3CCC2C)n1 (centres unmarked) [Compound 644]
1.04 to 6.25 µM: PDGFRB | Kdr | c-Met | EGFR
9.12 to 11.7 µM: Itk
> 11.7 µM: all other assays above

COC(=O)c1ccc(-c2cc(Nc3ncnc(Nc4cccc5ncccc45)n3)[nH]n2)cc1 [Compound 878]
5.47 to 7.98 µM: IGFR-1
0.912 to 5.47 µM: PDGFRB
7.98 to 10.3 µM: Itk | c-Met
> 10.3 µM: all other assays above

C#Cc1cccc(Nc2ncnc(Nc3cc(-c4ccccc4)n[nH]3)n2)c1 [Compound 1008]
> 12.7 µM: AKT | PDGFRB | ErbB2 | Zap-70
< 1.13 µM: IGFR-1
1.13 to 6.79 µM: all other assays above

CNS(=O)(=O)Cc1ccc(Nc2ncnc(Nc3cc(-c4ccco4)[nH]n3)n2)cc1 [Compound 888]
5.63 to 8.21 µM: Lck
> 10.6 µM: Zap-70
< 0.938 µM: Itk | Kdr | c-Met | IGFR-1
0.938 to 5.63 µM: all other assays above

Fc1ccc(CNc2ncccc2-c2ncnc(Nc3cccc(Cn4ccnc4)c3)n2)cc1 [Compound 1109]
> 9.94 µM: AKT
< 0.884 µM: PDGFRB | Itk | Kdr
5.3 to 7.73 µM: c-Met | Zap-70
0.884 to 5.3 µM: all other assays above

Fc1ccc(CNc2ncccc2-c2ncnc(Nc3ccc(N4CCOCC4)cc3)n2)cc1 [Compound 1106]
0.874 to 5.25 µM: PDGFRB | Kdr
> 9.84 µM: all other assays above

COc1cc(Nc2ncnc(-c3cccnc3NC(C)c3ccccc3)n2)cc(OC)c1OC (centres unmarked) [Compound 843]
< 0.872 µM: PDGFRB | Kdr | Lck
7.63 to 9.81 µM: ErbB2
> 9.81 µM: all other assays above

COC(=O)c1ccc(-c2cc(Nc3ncnc(NCc4cccs4)n3)[nH]n2)cc1 [Compound 877]
0.982 to 5.89 µM: PDGFRB | Itk | c-Met
8.59 to 11 µM: IGFR-1
5.89 to 8.59 µM: EGFR
> 11 µM: all other assays above

c1cc(Nc2ncnc(Nc3cc(-c4ccco4)[nH]n3)n2)cc(-c2cnco2)c1 [Compound 824]
1.04 to 6.21 µM: Lck | Zap-70
< 1.04 µM: all other assays above
